From patent US20240026301A1, “METHODS AND COMPOSITIONS FOR GENERATING ENDOTHELIAL CELLS FROM PLURIPOTENT STEM CELLS” (Trailhead Biosystems Inc., priority 2022, published 2024)
“Also recorded” adds a separate entry of the source.

Legend:
[1] = system: CD31; assay: Factor criticality analysis (dynamic profile analysis), CD31 expression level; format: cell-based, human; design: values of CD31, effector removed / CD31 levels, effector removed / CD31 levels before addition of the SHH agonist / CD31 levels after addition of the SHH agonist: unit not given here; conditions: for values of CD31, effector present / values of CD31, effector removed: FIG. 6 model; for values of CD31, effector present: all factors present
[2] = system: PECAM1 (CD31); assay: 8-factor HD-DoE experiments (qPCR, partial least squares models) optimized for maximum expression of PECAM1 (CD31), stage 2 differentiation; format: cell-based, human
Description: First, undifferentiated iPSC were grown for 48 h in CDM2 media containing 6 uM CHIR99021 (referred to herein as stage 1). Then stage 2 media was engineered. The basis of this was an 8-factor HD-DoE experiment with focus on differentiation of cells toward the endothelial lineage for an additional 3 days after termination of stage 1 treatment. To test the effectors, 48 different combinations of effectors generated using Design-of-Experiments compression through D-optimality were robotically prepared. The effector combinations were prepared in a basal media and were subsequently added to the cells, which were then allowed to differentiate. Three days later, RNA extraction was performed, and gene expression was obtained using quantitative PCR analysis. The data were normalized and modeled using partial least squares regression analysis to the effector design, resulting in the generation of gene-specific models, which after model tuning for maximal Q2 predictive power, provided explanation of the effectors ability to control the expression of individual genes, combinatorically, and individually. Solutions within the tested space could then be explored to address desirability. Optimizing for maximal expression of CD31 led to a robust solution. […] On this model, we observed high levels of KDR, important receptor for VEGF signaling.
This model was derived from initial testing of eight factors including: VEGF, FGF2, TTNBP, AGN194310, Y27632, Thymosin B4 and Heparin.
Next, we evaluated further factors to possibly increase the complexity of the signaling inputs to attain effective fate control. As previously, we focused on expression of CD31. Optimizing for maximal expression of the CD31 led to a robust solution. […] This model was derived from initial testing of eight factors including: YHHU-3792, DBZ, Pumorphamine, SANT1, LPA, YODA1, VEGF and B27. […] DBZ and LPA had low contributions factors and therefore were not used in the recipe.
To further improve the recipe for endothelial cell differentiation, we performed additional HD-DoE experiments. This model was derived from initial testing of eight factors including: VEGF, FGF2, Sphingosine 1 phosphate, VH298, Pyrintegrin, Erythropoetin, L-ascorbic acid and XAV939. […] On this model, we observed high levels of KDR, important receptor for VEGF signaling. […] Considering all the models analyzed, based on predicted conditions that maximize expression of endothelial enriched genes such as ERG, CDH5, CD31, FLI1, CD34, a complex recipe for endothelial differentiation was developed that is composed of 6 effectors, as shown below in Table 2: […]

[3] = system: CD31; assay: Factor criticality analysis (dynamic profile analysis), CD31 expression level; format: cell-based, human; design: values of CD31, effector removed: unit not given here; conditions: FIG. 5 model; for values of CD31, effector present: all finalized factors present; for values of CD31, effector removed: named effector removed, other factors kept
Description: (§1) First, undifferentiated iPSC were grown for 48 h in CDM2 media containing 6 uM CHIR99021 (referred to herein as stage 1). Then stage 2 media was engineered. The basis of this was an 8-factor HD-DoE experiment with focus on differentiation of cells toward the endothelial lineage for an additional 3 days after termination of stage 1 treatment. To test the effectors, 48 different combinations of effectors generated using Design-of-Experiments compression through D-optimality were robotically prepared. The effector combinations were prepared in a basal media and were subsequently added to the cells, which were then allowed to differentiate. Three days later, RNA extraction was performed, and gene expression was obtained using quantitative PCR analysis. The data were normalized and modeled using partial least squares regression analysis to the effector design, resulting in the generation of gene-specific models, which after model tuning for maximal Q2 predictive power, provided explanation of the effectors ability to control the expression of individual genes, combinatorically, and individually. Solutions within the tested space could then be explored to address desirability.
(§2) To assess the impact of elimination of each validated factor on genes associated with the endothelial lineage, dynamic profile analysis was used and the expression levels of genes of interest were compared in the absence of each finalized factor while others are kept present.
(§3) In this analysis, removal of a finalized effector while keeping other factors was used to analyze the impact of factors on the expression levels of CD31, CD34, FLi1 and CDH5 (FIG. 5A).

[4] = system: CD34; assay: Factor criticality analysis (dynamic profile analysis), CD34 expression level; format: cell-based, human; conditions: for values of CD34, effector present / values of CD34, effector removed: FIG. 5 model; for values of CD34, effector present: all finalized factors present; for values of CD34, effector removed / CD34 levels, effector removed: named effector removed; for values of CD34, effector removed: other factors kept
Description: as §1, §2, §3

[5] = system: CDH5; assay: Factor criticality analysis (dynamic profile analysis), CDH5 expression level; format: cell-based, human; conditions: FIG. 5 model; for values of CDH5, effector present: all finalized factors present; for values of CDH5, effector removed: named effector removed, other factors kept
Description: as §1, §2, §3

[6] = system: FLI1; assay: Factor criticality analysis (dynamic profile analysis), FLI1 expression level; format: cell-based, human; conditions: for values of FLI1, effector present: all finalized factors present; for values of Fli1, effector present / values of Fli1, effector removed: FIG. 6 model; for values of Fli1, effector present: all factors present
Description: as §1, §2, §3

[7] = system: PECAM1, CD34, CDH5 and FLI1; assay: Dynamic profile analysis of expression levels relative to effector concentration (figure legends); format: cell-based, human; conditions: for impact on expression of PECAM1, CD34, CDH5 and FLI1: FIG. 5A-5B, slope of plots relative to effector concentration
Text: FIG. 5A-5B show the dynamic profile analysis of expression levels of PECAM1, CD34, CDH5 and FLI1 relative to the concentration of 3 validated effectors.
FIG. 6A-6B show the dynamic profile analysis of expression levels of PECAM1, CD34, CDH5 and Fli1 relative to the concentration of 3 validated effectors.
as §2

[8] = system: pluripotent stem cells; conditions: DMEM base media with ascorbic acid; GSK-inhibitor treatment; cited from earlier work
[9] = system: CDH5; assay: Factor criticality analysis (dynamic profile analysis), CDH5 expression level; format: cell-based, human
[10] = model of FIG. 2, factors VEGF, FGF2, TTNBP, AGN194310, Y27632, Thymosin B4, Heparin, 3 days after stage 1
[11] = model of FIG. 3, factors YHHU-3792, DBZ, Pumorphamine, SANT1, LPA, YODA1, VEGF, B27
[12] = model of FIG. 4, factors VEGF, FGF2, Sphingosine 1 phosphate, VH298, Pyrintegrin, Erythropoetin, L-ascorbic acid, XAV939
[13] = FIG. 6 model, all factors present
[14] = FIG. 7 model, L-ascorbic acid kept in the model
[15] = FIG. 7 model, named effector removed, L-ascorbic acid kept

| Molecule | factor contribution (positive impact on expression of genes of interest) [2, 10] | values of CD31, effector present [3] | values of CD31, effector removed [3] | values of CD34, effector present [4] | values of CD34, effector removed [4] | values of CDH5, effector present [5] | values of CDH5, effector removed [5] | values of FLI1, effector present ([6]; FIG. 5 model) | impact on expression of PECAM1, CD34, CDH5 and FLI1 [7] | factor contribution (positive impact on expression of genes of interest) [2, 11] | factor contribution (positive impact on expression of genes of interest) [2, 12] | further results |
| --- | --- | --- | --- | --- | --- | --- | --- | --- | --- | --- | --- | --- |
| c1ccc2c(Oc3nc(Nc4ccc(N5CCOCC5)cc4)c4ncn(C5CCCCC5)c4n3)cccc2c1 [Pumorphamine] | – | – | – | – | – | – | – | – | – | – | – | CD31 levels after addition of the SHH agonist ([1]; FIG. 7 model, agent added): 400; CD31 levels before addition of the SHH agonist ([1]; FIG. 7 model, without the added agent): 800 |
| heparin | 11 | 2000 | 1500 | 6500 | 4800 | 10000 | 5800 | 2883 | positive impact | – | – | – |
| C/C(=C\c1ccc(C(=O)O)cc1)c1ccc2c(c1)C(C)(C)CCC2(C)C [TTNBP] | 21 | 2000 | 1077 | 6500 | 4300 | 10000 | 2600 | 2883 | positive impact | – | – | – |
| VEGF | 39 | 2000 | 340 | 6500 | 1000 | 10000 | 0 | 4900 | positive impact | 32 | 42 | values of FLI1, effector removed ([6]; FIG. 5 model, named effector removed, other factors kept): 1035; impact on expression of all genes (PECAM1, CD34, CDH5 and Fli1) ([7]; FIG. 6A-6B model): positive impact; also recorded: critical; impact on expression of all genes (PECAM1, CD34, CDH5 and Fli1) ([7]; FIG. 7A-7B model): positive impact |
| Cc1c[nH]c(-c2cnc(NCCNc3ccc(C#N)cn3)nc2-c2ccc(Cl)cc2Cl)n1 [CHIR99012] | – | – | – | – | – | – | – | – | – | – | – | yield of CD34+CD31+ cells prior to sorting [8]: 20-30% |
| Oc1nc(-c2ccc(C(F)(F)F)cc2)nc2c1CSCC2 [XAV939] | – | – | – | – | – | – | – | – | – | – | 15 | CD34 levels, effector present [4, 13]: 7180; CD34 levels, effector removed ([4]; FIG. 6 model): 5836; values of Fli1, effector present [6]: 13400; values of Fli1, effector removed ([6]; named effector removed): 7300; impact on PECAM1 and Fli1 expression ([7]; FIG. 6A-6B model): positive impact; values of CD31, effector present [1]: 6500; values of CD31, effector removed ([1]; named effector removed): 2225 |
| C[C@H](NC(=O)Cc1cc(F)cc(F)c1)C(=O)N[C@@H]1C(=O)N(C)c2ccccc2-c2ccccc21 [DBZ] | – | – | – | – | – | – | – | – | – | low | – | – |
| FGF2: FGFR agonist, e.g. recombinant human FGF2 | did not significantly impact the expression of CD31 | – | – | – | – | – | – | – | – | – | 16 | CD34 levels, effector removed ([4]; FIG. 6 model): did not change significantly; values of Fli1, effector present [6]: 1300; values of Fli1, effector removed ([6]; named effector removed): 500; impact on PECAM1, FLI1, and CDH5 expression ([7]; FIG. 6A-6B model): positive impact; values of CD31, effector present [1]: 6500; values of CD31, effector removed ([1]; named effector removed): 1990; values of CDH5, effector present [9, 13]: 19000; values of CDH5, effector removed ([9]; FIG. 6 model, named effector removed): 5000 |
| Cc1nn(-c2ccccc2)c(C)c1/C=N/N1CCN(Cc2ccccc2)CC1 [SANT1] | – | – | – | – | – | – | – | – | – | 16 | – | impact on PECAM1 and CDH5 expression ([7]; FIG. 7A-7B model): positive impact; CD31 levels, effector present [1, 14]: 808; CD31 levels, effector removed [1, 15]: 563; CDH5 levels, effector present [9, 14]: 2928; CDH5 levels, effector removed [9, 15]: 2340 |
